According to US20140221424A1, “PHARMACEUTICAL COMPOSITIONS FOR USE IN THE TREATMENT OF CYSTIC FIBROSIS” (Vertex Pharmaceuticals Incorporated, priority 2013, published 2014):
Converted amounts (≈) assume the structure as drawn. Read-outs that look alike come from different tables or passages of the source. Blank lines part the entries; values can stand above or below the compound they belong to.

Experiments:
[1] = system: CYP3A; experiment: Drug interaction studies: other drugs on ivacaftor exposure; type: in vivo, human
Experimental: Drug interaction studies were performed with KALYDECO™ and other drugs likely to be co-administered or drugs commonly used as probes for pharmacokinetic interaction studies [see Drug Interactions (subsection 7 of section V)].
(§1) The data obtained for KALYDECO™ without co-administration of inducers or inhibitors are used as reference.

[2] = system: rats; experiment: Teratogenicity in rats; type: in vivo, rat; settings: maternal dose 200 mg/kg/day, approximately 6 times the MRHD
Excerpt: (§2) There are no adequate and well-controlled studies of KALYDECO™ in pregnant women. […] Because animal reproduction studies are not always predictive of human response, KALYDECO™ should be used during pregnancy only if clearly needed.

[3] = system: rabbits; experiment: Teratogenicity in rabbits; type: in vivo, rabbit; settings: maternal dose 100 mg/kg/day, approximately 12 times the MRHD
Excerpt: as §2

[4] = system: pregnant rats; experiment: Placental transfer in pregnant rats; type: in vivo, rat
Excerpt: as §2

[5] = system: pregnant rabbits; experiment: Placental transfer in pregnant rabbits; type: in vivo, rabbit
Excerpt: as §2

[6] = system: lactating female rats; experiment: Excretion into milk of lactating rats; type: in vivo, rat
Experimental: Excretion of ivacaftor into human milk is probable. There are no human studies that have investigated the effects of ivacaftor on breast-fed infants. Caution should be exercised when KALYDECO™ is administered to a nursing person.

[7] = system: healthy subjects; experiment: Thorough QT study (ECG evaluation); type: in vivo, human; settings: 150 mg and 450 mg twice daily, 72 healthy subjects
Experimental: The highest repeated dose was 450 mg (in a tablet formulation) every 12 hours for 4.5 days (9 doses) in a trial evaluating the effect of KALYDECO™ on ECGs in healthy subjects.
The effect of multiple doses of ivacaftor 150 mg and 450 mg twice daily on QTc interval was evaluated in a randomized, placebo- and active-controlled (moxifloxacin 400 mg) four-period crossover thorough QT study in 72 healthy subjects.

[8] = Solubility in water; type: physicochemical; settings: practically insoluble
Excerpt: Ivacaftor is a white to off-white powder that is practically insoluble in water (<0.05 microgram/mL).

[9] = Clinical pharmacokinetics after oral administration; type: in vivo, human
Experimental: After every 12 hour dosing, steady-state plasma concentrations of ivacaftor were reached by days 3 to 5, with an accumulation ratio ranging from 2.2 to 2.9.
The exposure of ivacaftor increased approximately 2- to 4-fold when given with food containing fat. Therefore, KALYDECO™ should be administered with fat-containing food. Examples of fat-containing foods include eggs, butter, peanut butter, and cheese pizza. The median (range) tmax is approximately 4.0 (3.0; 6.0) hours in the fed state.
The mean apparent volume of distribution (Vz/F) of ivacaftor after a single dose of 275 mg of KALYDECO™ in the fed state was similar for healthy subjects and patients with CF. After oral administration of 150 mg every 12 hours for 7 days to healthy volunteers in a fed state, the mean (±SD) for apparent volume of distribution was 353 (122) L.
(§3) Following oral administration, the majority of ivacaftor (87.8%) is eliminated in the feces after metabolic conversion. The major metabolites M1 and M6 accounted for approximately 65% of the total dose eliminated with 22% as M1 and 43% as M6. There was negligible urinary excretion of ivacaftor as unchanged parent. […] The mean apparent clearance (CL/F) of ivacaftor was similar for healthy subjects and patients with CF.

[10] = Plasma protein binding; type: in vitro ADME; settings: human
Excerpt: Ivacaftor is approximately 99% bound to plasma proteins, primarily to alpha 1-acid glycoprotein and albumin.

[11] = system: human red blood cells; experiment: Binding to red blood cells; type: in vitro ADME
[12] = system: CYP3A enzymes (i.e., CYP3A4 and CYP3A5); experiment: Metabolism by CYP3A (in vitro and clinical studies); type: in vitro ADME, human; settings: for substrate of CYP3A enzymes (CYP3A4 and CYP3A5): in vitro studies
Excerpt: (§4) Ivacaftor is extensively metabolized in humans. […] M1 and M6 are the two major metabolites of ivacaftor in humans. M1 has approximately one-sixth the potency of ivacaftor and is considered pharmacologically active. M6 has less than one-fiftieth the potency of ivacaftor and is not considered pharmacologically active.
as §1

[13] = Elimination / human PK study with radioactivity; type: in vivo; settings: for share of the total dose eliminated as this metabolite: po
Excerpt: as §3
KALYDECO™ has not been studied in patients with mild, moderate or severe renal impairment (creatinine clearance less than or equal to 30 mL/min) or in patients with end stage renal disease. No dose adjustments are recommended for mild and moderate renal impairment patients because of minimal elimination of ivacaftor and its metabolites in urine (only 6.6% of total radioactivity was recovered in the urine in a human PK study); however, caution is recommended when administering KALYDECO™ to patients with severe renal impairment or end stage renal disease.

[14] = Pharmacokinetics in moderate hepatic impairment; type: in vivo, human
Experimental: Therefore, a reduced KALYDECO™ dose of 150 mg once daily is recommended for patients with moderate hepatic impairment. The impact of mild hepatic impairment (Child-Pugh Class A) on pharmacokinetics of ivacaftor has not been studied, but the increase in ivacaftor AUC0-∞ is expected to be less than two-fold. Therefore, no dose adjustment is necessary for patients with mild hepatic impairment. The impact of severe hepatic impairment (Child-Pugh Class C, score 10-15) on pharmacokinetics of ivacaftor has not been studied. […] When benefits are expected to outweigh the risks, KALYDECO™ should be used with caution in patients with severe hepatic impairment at a dose of 150 mg given once daily or less frequently.
Therefore, a reduced dose of 150 mg once daily is recommended in patients with moderate hepatic impairment.

[15] = system: mice; experiment: Two-year carcinogenicity study in mice; type: in vivo, mouse; settings: oral doses up to 200 mg/kg/day
Experimental: (§5) Two-year studies were conducted in mice and rats to assess carcinogenic potential of KALYDECO™.

[16] = system: rats; experiment: Two-year carcinogenicity study in rats; type: in vivo, rat; settings: oral doses up to 50 mg/kg/day
Experimental: as §5

[17] = system: bacterial gene mutation; experiment: Ames test for bacterial gene mutation; type: cell-based
Excerpt: (§6) Ivacaftor was negative for genotoxicity in the following assays: Ames test for bacterial gene mutation, in vitro chromosomal aberration assay in Chinese hamster ovary cells, and in vivo mouse micronucleus test.

[18] = system: Chinese hamster ovary cells; experiment: In vitro chromosomal aberration assay; type: cell-based; settings: CHO cells
Excerpt: as §6

[19] = system: mouse; experiment: In vivo mouse micronucleus test
Excerpt: as §6

[20] = system: male and female rats; experiment: Fertility and reproductive performance in rats; type: in vivo, rat
Experimental: Ivacaftor impaired fertility and reproductive performance indices in male and female rats at 200 mg/kg/day (approximately 5 and 6 times, respectively, the MRHD based on summed AUCs of ivacaftor and its metabolites). […] These impairments of fertility and reproductive performance in male and female rats at 200 mg/kg/day were attributed to severe toxicity.

[21] = system: juvenile rats; experiment: Juvenile rat toxicology; type: in vivo; settings: juvenile rats dosed postnatal day 7-35, 10 mg/kg/day and higher
Excerpt: This finding has not been observed in older animals.

[22] = system: patients with a G551D mutation; experiment: Population PK/PD analysis (Emax model) of FEV1 versus ivacaftor exposure; design: species or system human; settings: pooled Phase 2a and Phase 3 data
Excerpt: Therefore, median Cmin at EC90 was chosen as the target PK parameter for efficacy.

[23] = target: T1, G551D-CFTR protein (Homo sapiens, UniProt P13569, G551D); experiment: CFTR-mediated transepithelial current (IT) in rodent cells expressing G551D-CFTR; type: cell-based; design: expressed in transfected cells
T1 sequence (P13569 whole entry G551D): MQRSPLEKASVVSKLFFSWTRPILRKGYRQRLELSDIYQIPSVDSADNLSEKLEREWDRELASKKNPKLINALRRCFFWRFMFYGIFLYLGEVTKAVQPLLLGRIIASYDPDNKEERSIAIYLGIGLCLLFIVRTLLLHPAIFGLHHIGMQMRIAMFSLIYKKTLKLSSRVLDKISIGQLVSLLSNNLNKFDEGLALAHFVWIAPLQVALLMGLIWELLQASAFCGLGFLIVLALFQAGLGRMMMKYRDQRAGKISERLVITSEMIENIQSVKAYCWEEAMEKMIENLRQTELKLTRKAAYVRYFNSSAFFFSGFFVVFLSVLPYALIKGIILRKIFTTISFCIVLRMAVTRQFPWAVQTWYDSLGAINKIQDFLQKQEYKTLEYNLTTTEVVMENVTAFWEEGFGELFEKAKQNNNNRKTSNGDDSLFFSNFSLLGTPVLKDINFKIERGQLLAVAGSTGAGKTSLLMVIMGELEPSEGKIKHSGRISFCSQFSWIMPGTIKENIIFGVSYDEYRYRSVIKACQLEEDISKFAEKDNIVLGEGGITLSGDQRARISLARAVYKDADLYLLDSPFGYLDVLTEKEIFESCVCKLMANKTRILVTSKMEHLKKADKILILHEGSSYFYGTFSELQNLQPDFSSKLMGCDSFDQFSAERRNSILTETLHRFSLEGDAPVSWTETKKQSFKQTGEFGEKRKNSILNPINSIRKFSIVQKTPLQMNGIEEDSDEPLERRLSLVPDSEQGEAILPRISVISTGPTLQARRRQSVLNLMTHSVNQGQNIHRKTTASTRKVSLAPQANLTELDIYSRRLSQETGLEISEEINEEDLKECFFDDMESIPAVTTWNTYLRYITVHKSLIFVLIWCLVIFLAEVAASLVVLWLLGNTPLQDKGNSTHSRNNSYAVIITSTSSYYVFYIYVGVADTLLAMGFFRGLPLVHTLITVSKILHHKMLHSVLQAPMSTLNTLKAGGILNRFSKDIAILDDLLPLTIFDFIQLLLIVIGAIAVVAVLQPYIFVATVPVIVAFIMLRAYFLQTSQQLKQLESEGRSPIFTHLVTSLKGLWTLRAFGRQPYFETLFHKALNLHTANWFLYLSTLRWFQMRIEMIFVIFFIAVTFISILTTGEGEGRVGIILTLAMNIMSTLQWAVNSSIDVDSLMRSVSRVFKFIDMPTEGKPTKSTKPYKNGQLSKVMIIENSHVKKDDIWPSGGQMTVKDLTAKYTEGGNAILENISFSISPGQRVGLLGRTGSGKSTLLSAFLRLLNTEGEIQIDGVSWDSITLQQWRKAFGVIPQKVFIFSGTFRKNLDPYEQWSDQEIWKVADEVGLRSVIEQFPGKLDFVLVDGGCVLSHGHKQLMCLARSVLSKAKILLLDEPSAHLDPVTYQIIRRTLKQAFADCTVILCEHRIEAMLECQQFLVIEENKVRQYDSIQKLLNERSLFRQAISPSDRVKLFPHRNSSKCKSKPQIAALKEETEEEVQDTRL

[24] = target: T1, G551D-CFTR protein; experiment: Single channel patch clamp, membrane patches from rodent cells expressing G551D-CFTR; type: biochemical; design: expressed in transfected cells; settings: versus untreated cells, after addition of PICA and ATP
[25] = target: T1, G551D-CFTR protein; experiment: Transepithelial current (IT) in human bronchial epithelial cells expressing G551D-CFTR; type: cell-based; design: endogenous in cells; host or cells: human bronchial epithelial cells
[26] = Potency of metabolites relative to ivacaftor
Excerpt: as §4

[27] = moderately impaired hepatic function (Child-Pugh Class B, score 7 to 9)
[28] = rats, 200 mg/kg/day, dams dosed prior to and during early pregnancy

Structure (SMILES): CC(C)(C)c1cc(C(C)(C)C)c(NC(=O)c2c[nH]c3ccccc3c2=O)cc1O [Ivacaftor, N-[2,4-bis(1,1-dimethylethyl)-5-hydroxyphenyl]-1,4-dihydro-4-oxoquinoline-3-carboxamide]
increase of ivacaftor exposure ([1]; co-administration with fluconazole, a moderate inhibitor of CYP3A): 3 fold
increase of ivacaftor exposure (AUC) ([1]; co-administration with ketoconazole, a strong CYP3A inhibitor): 8.5 fold
decrease of ivacaftor exposure (AUC) ([1]; co-administration with rifampin, a strong CYP3A inducer): approximately 9 fold
teratogenic effects [2]: not teratogenic
teratogenic effects [3]: not teratogenic
placental transfer [4]: observed
placental transfer [5]: observed
excretion into milk [6]: excreted into the milk
upper bound of the one-sided 95% confidence interval for the largest placebo adjusted, baseline-corrected QTcF [7]: below 10 ms
solubility [8]: < 0.05 µg/mL
apparent volume of distribution, mean (±SD) ([9]; 150 mg orally every 12 hours for 7 days, healthy volunteers, fed state): 353 (122) L
increase of exposure when given with food containing fat ([9]; human, in vivo): 2-4 fold
mean apparent clearance (CL/F), healthy subjects versus patients with CF ([9]; human, in vivo): similar
pharmacokinetics, healthy adult volunteers versus patients with CF ([9]; human, in vivo): similar
Tmax ([9]; human, in vivo, fed state, read-out: median (range) tmax): ~4 h
half-life ([9]; human, in vivo, following a single dose, read-out: apparent terminal half-life (converted)): ~12 h
AUC ([9]; human, in vivo, single 150 mg oral dose, healthy volunteers, fed state, read-out: AUC, mean (±SD)): 10600 ng·h/mL
Cmax ([9]; human, in vivo, single 150 mg oral dose, healthy volunteers, fed state, read-out: Cmax, mean (±SD)): 768 ng/mL
Tmax ([9]; human, in vivo, single 150 mg oral dose, healthy volunteers, fed state, read-out: time of peak plasma concentrations (Tmax)): ~4 h
mean apparent volume of distribution (Vz/F), healthy subjects versus patients with CF ([9]; single dose of 275 mg, fed state): similar
fraction unbound [10]: ~0.01
binding to human red blood cells [11]: does not bind
primary route of metabolism ([12]; in vitro and clinical studies): primarily metabolized by CYP3A
substrate of CYP3A enzymes (CYP3A4 and CYP3A5) [12]: substrates
urinary excretion as unchanged parent ([13]; in vivo): negligible
total radioactivity recovered in the urine ([13]; ivacaftor and its metabolites, human PK study): 6.6%
AUC(0-inf) ([14]; human, in vivo, oral, single dose of 150 mg, moderately impaired hepatic function, read-out: AUC0-∞, mean (±SD)): 16800 ng·h/mL
Cmax ([14]; human, in vivo, oral, single dose of 150 mg, moderately impaired hepatic function, read-out: Cmax, mean (±SD)): 735 ng/mL
Cmax compared with healthy subjects matched for demographics [14, 27]: similar
increase in AUC0-∞ compared with healthy subjects matched for demographics [14, 27]: approximately two-fold
tumorigenicity [15]: No evidence of tumorigenicity
tumorigenicity [16]: No evidence of tumorigenicity
genotoxicity [17]: negative
genotoxicity [18]: negative
genotoxicity [19]: negative
prolonged diestrus ([20]; female rats, 200 mg/kg/day): Increases
fertility and reproductive performance indices ([20]; male and female rats, 200 mg/kg/day, attributed to severe toxicity): impaired
fertility and reproductive performance indices ([20]; male or female rats, ≦100 mg/kg/day (approximately 3 times the MRHD)): No effects
corpora lutea, implantations, and viable embryos [20, 28]: decreased
number of females with all nonviable embryos [20, 28]: increased
cataracts [21]: Cataracts were seen
EC50, FEV1 versus ivacaftor exposure, Emax model [22]: 0.045 µg/mL (≈ 0.115 µM)
EC90, FEV1 versus ivacaftor exposure, Emax model [22]: 0.405 µg/mL (≈ 1.03 µM)
increase of IT in the absence of cAMP agonist [23]: did not increase
EC50 ([23]; following addition of a cAMP agonist, read-out: EC50, increase of CFTR-mediated transepithelial current (IT)): 100 ± 47 nM
increase of open probability of G551D-CFTR protein [24]: 6 fold
EC50 [25]: 236 ± 200 nM
increase of IT ([25]; human bronchial epithelial cells expressing G551D-CFTR, following addition of a cAMP agonist): 10 fold

Structure (SMILES): CC(C)(C)c1cc(C(C)(C)CO)c(O)cc1NC(=O)c1c[nH]c2ccccc2c1=O [M1, hydroxymethyl-ivacaftor]
increase of M1 exposure ([1]; ivacaftor co-administered with fluconazole): 1.9 fold
increase of M1 exposure ([1]; ivacaftor co-administered with ketoconazole): 1.7 fold
substrate of CYP3A enzymes (CYP3A4 and CYP3A5) [12]: substrates
potency relative to ivacaftor [26]: approximately one-sixth
share of the total dose eliminated as this metabolite ([13]; in vivo): 22%

share of the total dose eliminated as this metabolite ([13]; in vivo): 43%
Structure (SMILES): CC(C)(C)c1cc(C(C)(C)C(=O)O)c(O)cc1NC(=O)c1c[nH]c2ccccc2c1=O [M6]
potency relative to ivacaftor [26]: less than one-fiftieth
